# Data as given in PubChem BioAssay (NCI).
#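 Briefly, cells in 96-well plates were exposed to five compound concentrations for 48 h, and endpoints were estimated by linear interpolation. GI50: concentration for 50% inhibition of growth. TGI marks complete inhibition of growth.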
# How the values were obtained:
# Assay in all cases: NCI-60 cell line screen, 48 h
# 786-0 renal = test system: 786-0 renal
# A549 NSCLC = test system: A549 NSCLC
# CAKI-1 renal = test system: CAKI-1 renal
# COLO 205 colon = test system: COLO 205 colon
# DLD-1 colon = test system: DLD-1 colon
# DMS 114 small cell lung = test system: DMS 114 small cell lung
# DMS 273 small cell lung = test system: DMS 273 small cell lung
# EKVX NSCLC = test system: EKVX NSCLC
# HCC-2998 colon = test system: HCC-2998 colon
# HCT-116 colon = test system: HCT-116 colon
# HCT-15 colon = test system: HCT-15 colon
# HOP-18 NSCLC = test system: HOP-18 NSCLC
# IGROV1 ovarian = test system: IGROV1 ovarian
# KM12 colon = test system: KM12 colon
# KM20L2 colon = test system: KM20L2 colon
# LOX IMVI melanoma = test system: LOX IMVI melanoma
# LXFL 529 NSCLC = test system: LXFL 529 NSCLC
# M14 melanoma = test system: M14 melanoma
# M19-MEL melanoma = test system: M19-MEL melanoma
# MALME-3M melanoma = test system: MALME-3M melanoma
# NCI-H226 lung = test system: NCI-H226 lung
# NCI-H23 lung = test system: NCI-H23 lung
# NCI-H460 lung = test system: NCI-H460 lung
# NCI-H522 lung = test system: NCI-H522 lung
# OVCAR-3 ovarian = test system: OVCAR-3 ovarian
# OVCAR-4 ovarian = test system: OVCAR-4 ovarian
# OVCAR-5 ovarian = test system: OVCAR-5 ovarian
# OVCAR-8 ovarian = test system: OVCAR-8 ovarian
# RPMI-8226 leukemia = test system: RPMI-8226 leukemia
# RXF 393 renal = test system: RXF 393 renal
# RXF-631 renal = test system: RXF-631 renal
# SF-268 CNS = test system: SF-268 CNS
# SF-295 CNS = test system: SF-295 CNS
# SF-539 CNS = test system: SF-539 CNS
# SK-MEL-2 melanoma = test system: SK-MEL-2 melanoma
# SK-MEL-28 melanoma = test system: SK-MEL-28 melanoma
# SK-MEL-5 melanoma = test system: SK-MEL-5 melanoma
# SN12C renal = test system: SN12C renal
# SNB-19 CNS = test system: SNB-19 CNS
# SNB-75 CNS = test system: SNB-75 CNS
# SR leukemia = test system: SR leukemia
# SW-620 colon = test system: SW-620 colon
# TK-10 renal = test system: TK-10 renal
# U251 CNS = test system: U251 CNS
# UACC-62 melanoma = test system: UACC-62 melanoma
# UO-31 renal = test system: UO-31 renal
# XF 498 CNS = test system: XF 498 CNS
# A498 renal = test system: A498 renal
# ACHN renal = test system: ACHN renal
# CCRF-CEM leukemia = test system: CCRF-CEM leukemia
# HL-60(TB) leukemia = test system: HL-60(TB) leukemia
# HOP-62 NSCLC = test system: HOP-62 NSCLC
# HOP-92 NSCLC = test system: HOP-92 NSCLC
# HT29 colon = test system: HT29 colon
# K-562 leukemia = test system: K-562 leukemia
# MOLT-4 leukemia = test system: MOLT-4 leukemia
# SK-OV-3 ovarian = test system: SK-OV-3 ovarian
# UACC-257 melanoma = test system: UACC-257 melanoma
compound,measurement,setting,value
CC(C)(C)N=Cc1ccccc1[O-].CC(C)(C)N=Cc1ccccc1[O-].[Co+2],GI50,786-0 renal,72.4 µM
same,TGI,786-0 renal,> 100 µM
same,GI50,A549 NSCLC,> 100 µM
same,TGI,A549 NSCLC,> 100 µM
same,GI50,CAKI-1 renal,59.3 µM
same,TGI,CAKI-1 renal,> 100 µM
same,GI50,COLO 205 colon,45.3 µM
same,TGI,COLO 205 colon,> 100 µM
same,GI50,DLD-1 colon,52.7 µM
same,TGI,DLD-1 colon,> 100 µM
same,GI50,DMS 114 small cell lung,26.1 µM
same,TGI,DMS 114 small cell lung,> 100 µM
same,GI50,DMS 273 small cell lung,37.2 µM
same,TGI,DMS 273 small cell lung,> 100 µM
same,GI50,EKVX NSCLC,60.7 µM
same,TGI,EKVX NSCLC,> 100 µM
same,GI50,HCC-2998 colon,> 100 µM
same,TGI,HCC-2998 colon,> 100 µM
same,GI50,HCT-116 colon,80.4 µM
same,TGI,HCT-116 colon,> 100 µM
same,GI50,HCT-15 colon,> 100 µM
same,TGI,HCT-15 colon,> 100 µM
same,GI50,HOP-18 NSCLC,7.08 µM
same,TGI,HOP-18 NSCLC,83 µM
same,GI50,IGROV1 ovarian,22.8 µM
same,TGI,IGROV1 ovarian,> 100 µM
same,GI50,KM12 colon,> 100 µM
same,TGI,KM12 colon,> 100 µM
same,GI50,KM20L2 colon,72.8 µM
same,TGI,KM20L2 colon,> 100 µM
same,GI50,LOX IMVI melanoma,> 100 µM
same,TGI,LOX IMVI melanoma,> 100 µM
same,GI50,LXFL 529 NSCLC,83.9 µM
same,TGI,LXFL 529 NSCLC,> 100 µM
same,GI50,M14 melanoma,30.2 µM
same,TGI,M14 melanoma,> 100 µM
same,GI50,M19-MEL melanoma,54.4 µM
same,TGI,M19-MEL melanoma,> 100 µM
same,GI50,MALME-3M melanoma,93.5 µM
same,TGI,MALME-3M melanoma,> 100 µM
same,GI50,NCI-H226 lung,21.9 µM
same,TGI,NCI-H226 lung,> 100 µM
same,GI50,NCI-H23 lung,8.39 µM
same,TGI,NCI-H23 lung,> 100 µM
same,GI50,NCI-H460 lung,> 100 µM
same,TGI,NCI-H460 lung,> 100 µM
same,GI50,NCI-H522 lung,30.3 µM
same,TGI,NCI-H522 lung,> 100 µM
same,GI50,OVCAR-3 ovarian,17.4 µM
same,TGI,OVCAR-3 ovarian,> 100 µM
same,GI50,OVCAR-4 ovarian,56.5 µM
same,TGI,OVCAR-4 ovarian,> 100 µM
same,GI50,OVCAR-5 ovarian,3.31 µM
same,TGI,OVCAR-5 ovarian,> 100 µM
same,GI50,OVCAR-8 ovarian,76.7 µM
same,TGI,OVCAR-8 ovarian,> 100 µM
same,GI50,RPMI-8226 leukemia,18 µM
same,TGI,RPMI-8226 leukemia,> 100 µM
same,GI50,RXF 393 renal,> 100 µM
same,TGI,RXF 393 renal,> 100 µM
same,GI50,RXF-631 renal,23.2 µM
same,TGI,RXF-631 renal,> 100 µM
same,GI50,SF-268 CNS,60.7 µM
same,TGI,SF-268 CNS,> 100 µM
same,GI50,SF-295 CNS,> 100 µM
same,TGI,SF-295 CNS,> 100 µM
same,GI50,SF-539 CNS,> 100 µM
same,TGI,SF-539 CNS,> 100 µM
same,GI50,SK-MEL-2 melanoma,> 100 µM
same,TGI,SK-MEL-2 melanoma,> 100 µM
same,GI50,SK-MEL-28 melanoma,55.8 µM
same,TGI,SK-MEL-28 melanoma,> 100 µM
same,GI50,SK-MEL-5 melanoma,89.4 µM
same,TGI,SK-MEL-5 melanoma,> 100 µM
same,GI50,SN12C renal,> 100 µM
same,TGI,SN12C renal,> 100 µM
same,GI50,SNB-19 CNS,> 100 µM
same,TGI,SNB-19 CNS,> 100 µM
same,GI50,SNB-75 CNS,> 100 µM
same,TGI,SNB-75 CNS,> 100 µM
same,GI50,SR leukemia,6.3 µM
same,TGI,SR leukemia,> 100 µM
same,GI50,SW-620 colon,70.3 µM
same,TGI,SW-620 colon,> 100 µM
same,GI50,TK-10 renal,44.5 µM
same,TGI,TK-10 renal,> 100 µM
same,GI50,U251 CNS,58.2 µM
same,TGI,U251 CNS,> 100 µM
same,GI50,UACC-62 melanoma,12.1 µM
same,TGI,UACC-62 melanoma,> 100 µM
same,GI50,UO-31 renal,18.8 µM
same,TGI,UO-31 renal,> 100 µM
same,GI50,XF 498 CNS,> 100 µM
same,TGI,XF 498 CNS,> 100 µM
Nc1nc[n+](Cc2ccccc2CCO)c2nc[nH]c12,TGI,786-0 renal,> 100 µM
same,TGI,A498 renal,> 100 µM
same,TGI,A549 NSCLC,> 100 µM
same,TGI,ACHN renal,> 100 µM
same,TGI,CAKI-1 renal,> 100 µM
same,TGI,CCRF-CEM leukemia,> 100 µM
same,TGI,COLO 205 colon,> 100 µM
same,TGI,DMS 114 small cell lung,> 100 µM
same,TGI,DMS 273 small cell lung,> 100 µM
same,TGI,EKVX NSCLC,> 100 µM
same,TGI,HCT-15 colon,> 100 µM
same,TGI,HL-60(TB) leukemia,> 100 µM
same,TGI,HOP-18 NSCLC,> 100 µM
same,TGI,HOP-62 NSCLC,> 100 µM
same,TGI,HOP-92 NSCLC,> 100 µM
same,TGI,HT29 colon,> 100 µM
same,TGI,IGROV1 ovarian,> 100 µM
same,TGI,K-562 leukemia,> 100 µM
same,TGI,KM12 colon,> 100 µM
same,TGI,KM20L2 colon,> 100 µM
same,TGI,LOX IMVI melanoma,> 100 µM
same,TGI,LXFL 529 NSCLC,> 100 µM
same,TGI,M14 melanoma,> 100 µM
same,TGI,M19-MEL melanoma,> 100 µM
same,TGI,MALME-3M melanoma,> 100 µM
same,TGI,MOLT-4 leukemia,> 100 µM
same,TGI,NCI-H226 lung,> 100 µM
same,TGI,NCI-H23 lung,> 100 µM
same,TGI,NCI-H460 lung,> 100 µM
same,TGI,NCI-H522 lung,> 100 µM
same,TGI,OVCAR-3 ovarian,> 100 µM
same,TGI,OVCAR-4 ovarian,> 100 µM
same,TGI,OVCAR-5 ovarian,> 100 µM
same,TGI,OVCAR-8 ovarian,> 100 µM
same,TGI,RPMI-8226 leukemia,> 100 µM
same,TGI,RXF 393 renal,> 100 µM
same,TGI,RXF-631 renal,> 100 µM
same,TGI,SF-268 CNS,> 100 µM
same,TGI,SF-295 CNS,> 100 µM
same,TGI,SF-539 CNS,> 100 µM
same,TGI,SK-MEL-2 melanoma,> 100 µM
same,TGI,SK-MEL-28 melanoma,> 100 µM
same,TGI,SK-MEL-5 melanoma,> 100 µM
same,TGI,SK-OV-3 ovarian,> 100 µM
same,TGI,SN12C renal,> 100 µM
same,TGI,SNB-19 CNS,> 100 µM
same,TGI,SNB-75 CNS,> 100 µM
same,TGI,SW-620 colon,> 100 µM
same,TGI,TK-10 renal,> 100 µM
same,TGI,U251 CNS,> 100 µM
same,TGI,UACC-257 melanoma,> 100 µM
same,TGI,UACC-62 melanoma,> 100 µM
same,TGI,UO-31 renal,> 100 µM
same,TGI,XF 498 CNS,> 100 µM
